Series [1] can be described thus: Molar enthalpy of transition or fusion. The note with it: Crystal; DSC.
For series [2] the following is noted: Crystal; DTA.

SMILES strings stand for the structures. Numbers after ± are expanded uncertainties.

Regarding `CCOc1cc(C=O)ccc1O` [3-ethoxy-4-hydroxybenzaldehyde], the “Molar enthalpy of transition or fusion” value in series [1] is 5.64 ± 1.24 kcal/mol. For the same compound, the Normal melting temperature in series [2] worked out at 78 ± 1.1 °C.
